From patent US20180221343A1, “PHARMACEUTICAL COMPOSITION FOR PREVENTING OR TREATING MACULAR DEGENERATION” (KOREA RESEARCH INSTITUTE OF CHEMICAL TECHNOLOGY, priority 2011, published 2018) come the findings set out here.

The subject of one series is corneal epithelial cells. In words: Effects on normal regeneration of corneal epithelial cells in animal models. Type of series: in vivo, rats. To be noted: eye drop 50 μl twice a day. As to the method: Animal models having damage in the corneal epithelial cells were established by anesthetizing rats (8 weeks old, 200 g to 250 g) with a mixed solution of rompun and zoletil (1 ml/kg) and then scraping the corneal epithelial cells at the center of the cornea in a circular form having 2 mm diameter with a surgical knife. The removal of corneal epithelial cells was confirmed with a 1% fluorescein solution. The eye drop formulation (50 μl) used in Example 2 was administered twice a day, i.e., every 12 hours. The evaluations quantifying the photographs of FIG. 5 were performed by using the Image J (NIH, USA) program and the results thereof were shown in FIG. 6.

For another series, the system named is corneal angiogenesis. Briefly: Inhibitory effects against corneal angiogenesis in animal models having corneal damage (subconjunctival injection). To be noted: subconjunctival injection 20 μl; KR 0.3 mg/ml, Avastin 10 mg/ml; 1 week after administration. It is filed as in vivo, Sprague Dawley rats. As to the method:
The tests were performed by using Sprague Dawley rats (8 weeks old, male) as animals having corneal damage (15 rats for the experiment group; and 1 rat for normal group, respectively). The corneal damage was induced by applying a cotton swab coated with silver nitrate to the surface of the rat corneas, as as to induce a damage having a diameter of 2 mm in the central cornea. On the third day after inducing the corneal damages, we confirmed the establishment of corneal angiogenesis-inducing models and then subconjunctivally injected a solution (20 μl) prepared by dissolving the compound of Preparation Example 23, i.e., (2R,3R,4S)-6-amino-4-[N-(4-chlorophenyl)-N-(1H-imidazol-2-ylmethyl)amino]-3-hydroxy-2-methyl-2-dimethoxymethyl-3,4-dihydro-2H-1-benzopyran (KR-31831) in phosphate buffered saline (PBS) containing 10% PEG 400, in the concentration of 0.3 mg/ml. In case of the control group, the PBS (20 μl) containing 10% PEG 400 was subconjunctivally injected. As a positive control, a solution (20 μl) prepared by dissolving Avastin (used as an angiogenesis inhibitor) in PBS in the concentration of 10 mg/ml was subconjunctivally injected. The evaluations quantifying the photographs of FIG. 1 were performed by using the Image J (NIH, USA) program and the results thereof were shown in FIG. 2.

A further series has as its system retinal angiogenesis. In words: Laser-induced retinal damage model, retinal angiogenesis by dextran-FITC fluorescence. Type of series: in vivo, Brown Norway rats. Particulars: 2 weeks after administration. As to the method:
The tests were performed by using Brown Norway rats (8 weeks old, male) as animals having retinal damage (15 rats for the experiment group; and 1 rat for normal group, respectively). The retinal Bruch's membrane of each Brown Norway rat was damaged using a Zeiss 532s laser at the intensity of […], 30 ms. On the third day after the laser-damaging, the drug was administered into the vitreous humor in order to observe the retinal vessels. The compound of the present invention, i.e., (2R,3R,4S)-6-amino-4-[N-(4-chlorophenyl)-N-(1H-imidazol-2-ylmethyl)amino]-3-hydroxy-2-methyl-2-dimethoxymethyl-3,4-dihydro-2H-1-benzopyran was administered with the solutions (10 μl of each solution) obtained by dissolving in PBS containing 30% PEG 400 and 10% DMSO, in the concentrations of 0.1 mg/ml and 0.3 mg/ml. Avastin was administered with the solution (10 μl) obtained by dissolving in PBS in the concentration of 2.5 mg/ml. In case of the control group, the PBS (10 μl) was administered. In addition, (2R,3R,4S)-6-amino-4-[N-(4-chlorophenyl)-N-(1H-imidazol-2-ylmethyl)amino]-3-hydroxy-2-methyl-2-dimethoxymethyl-3,4-dihydro-2H-1-benzopyran was intraperitoneally administered with the solution obtained by dissolving in PBS containing 30% PEG 400 and 10% DMSO, in the dose of 25 mg/kg. 2 weeks after the drug administrations, dextran-FITC was injected into the left ventricle in the dose of 25 mg/kg, followed by enucleating the eye after 5 minutes therefrom; and then fixing in a 10% formalin solution. The cornea and the eye lens were removed from the fixed eye, which was then observed under a fluorescence microscope. Angiogenesis was identified by the intensity and leakage of dextran-FITC in the laser-induced damage site; and the results thereof were shown in FIG. 7. The evaluations quantifying the photographs of FIG. 7 were performed by using the Image J (NIH, USA) program and the results thereof were shown in FIG. 8.

`COC(OC)[C@]1(C)Oc2ccc(N)cc2[C@H](N(Cc2ncc[nH]2)c2ccc(Cl)cc2)[C@H]1O` [KR-31831, (2R,3R,4S)-6-amino-4-[N-(4-chlorophenyl)-N-(1H-imidazol-2-ylmethyl)amino]-3-hydroxy-2-methyl-2-dimethoxymethyl-3,4-dihydro-2H-1-benzopyran]: the figures for the “healing rate of corneal epithelial damage” value with corneal epithelial cells (0 hour after the administration), in the series on corneal epithelial cells (18 hours after the administration) and in the series with corneal epithelial cells (36 hours after the administration) were 52±9%, 55±9% and 94±8%, respectively. Moreover, the “corneal angiogenesis in comparison with the corneal angiogenesis (100%) of the control group” value in the series on corneal angiogenesis is listed as 52.6±10%. Further, the “fluorescence intensity at laser-induced damage site (surrounding vessels = 100)” value is 53±2.8 with retinal angiogenesis (0.1 mg/ml, VI (10 μl into the vitreous humor)); 45±3.1 in the series on retinal angiogenesis (0.3 mg/ml, VI (10 μl into the vitreous humor)); 51±5 in the series with retinal angiogenesis (25 mg/kg, IP (intraperitoneal)).
